Measured values published in patent US11786533B2, “Use of EZH2 inhibitors for treating cancer” (Epizyme, Inc., priority 2016, dated 2023).

Tests used:
[1] = test system: genetically defined cancer cells; experiment: Target methyl mark inhibition and killing of cancer cells in vitro; assay type: cell-based
Animal models = experiment: In vivo efficacy in animal models
Oral bioavailability = assay type: in vivo

oral bioavailability (Oral bioavailability): orally bioavailable
Compound: CCN(c1cc(-c2ccc(CN3CCOCC3)cc2)cc(C(=O)NCc2c(C)cc(C)[nH]c2=O)c1C)C1CCOCC1 [Compound 44]
target methyl mark inhibition resulting in killing of cancer cells [1]: killing of genetically defined cancer cells in vitro | in vivo efficacy following inhibition of target methyl mark (Animal models): sustained in vivo efficacy
